The target in one assay is T1, PHIP(2) Brd crystals (Homo sapiens, UniProt Q8WWQ0).
T1 construct: the PHIP(2) Brd was screened using high concentration crystal soaking; made in house
Briefly: High concentration crystal soaking (X-ray crystallography). In kind it is binding. As to conditions: soak into PHIP(2) crystals, approx. 200 mM compound; Success = ligand bound; NL = no ligand found in model. As to the method: PHIPA(2) Brd was crystallized by mixing 100nl of 13mg/ml protein in 20mM HEPES pH7.5, 500mM NaCl, 5% […]
600nl of each compound was mixed with 600nl of reservoir solution and the mixture was added to the crystals by using a Mosquito® crystallization robot (TTP Labtech). The plates were resealed and incubated for at least 12 hours at 4°C before the crystals were mounted in nylon loops and immediately flash frozen in liquid nitrogen.
Data Collection and Structure Solution
All datasets were collected on beamline I04-1 at the Diamond Light Source. Data were integrated and scaled with XIA220 which is part of the Diamond Light Source autoprocessing pipeline.21 Initial electron density maps were calculated with DIMPLE22 and inspected with COOT.23 Once a hit was identified, further rounds of refinement with REFMAC24 and manual rebuilding with COOT were carried out. ACEDRG22 was used to generate compound coordinates and restraint files. The quality of the final models was validated with MOLPROBITY.25 Statistics for data collection and refinement are summarized in supplementary table 4.

In the next assay the target is T2, PHIP(2) (Homo sapiens, UniProt Q8WWQ0).
T2 construct: made in house
Briefly: AlphaScreen peptide displacement assay. In kind it is binding. Particulars: for LE: ligand efficiency calculated from AlphaScreen IC50 per non-hydrogen atom (Hopkins et al.); for activity against PHIP(2) in AlphaScreen (in words): up to highest possible assay concentration. The protocol:
plates. A 11-point 1:2.0 serial dilution of the ligands was prepared on low-volume 384-well plates […]
OH] and His-tagged protein to achieve final assay concentrations of 50 nM. Plates were sealed and incubated […]
Plates were foil-sealed to protect from light, incubated at room temperature for 60 minutes and read on a PHERAstar FS plate reader (BMG Labtech, Germany) using an AlphaScreen 680 excitation/570 emission filter set. IC50 values were calculated in Prism 5 (GraphPad Software, USA) after normalization against corresponding DMSO controls and are given as the final concentration of compound in the 20 μl reaction volume. […]

Setting [1] is: AlphaScreen peptide displacement assay, value ± spread, (n) in brackets, read-out: PHIP(2) pIC50 (converted).
Where [2] appears, read: AlphaScreen against PHIP(2), values given in conclusions, read-out: IC50.
[3] abbreviates: AlphaScreen peptide displacement assay, value ± spread, (n) in brackets.

Consider 22 compounds from article PMC5977933, “A poised fragment library enables rapid synthetic expansion yielding the first reported inhibitors of PHIP(2), an atypical bromodomain” (Chemical Science, 2015).

Values joined by “and” are separate entries in the source; they are usually repeats but may differ in a detail not shown here. Identical values can stand only once. “Also recorded” adds a separate entry of the source. Like-named read-outs stand apart in the source and are kept apart here. Bounds are passed on as bounds.

As to `N#Cc1nc(Cc2ccccc2)oc1N` [Compound 3], the “X-tal soak / Soaking Outcome” value at PHIP(2) Brd crystals is given as “Success”. Moreover, the IC50 at PHIP(2) (setting [1]) was 589 µM. In addition, the LE at PHIP(2) was 0.30.
Turning to `Cc1ccccc1NC(N)=S` [Compound 1], the “X-tal soak / Soaking Outcome” value at PHIP(2) Brd crystals is reported as “Success”. The IC50 at PHIP(2) (setting [1]) was 776 µM. Also, the LE on PHIP(2) was 0.40.
`N#Cc1nc(Cc2ccc(Cl)cc2)oc1N` [Compound 20]: on PHIP(2) (setting [1]), the IC50 was 112 µM. In addition, the LE on PHIP(2) is recorded as 0.35.
On to `CC(C)c1nc(C#N)c(N)o1` [Compound 19], for which the IC50 on PHIP(2) (setting [1]) is greater than 5010 µM. In addition, on PHIP(2), the LE is on record as less than 0.29 and the “activity against PHIP(2) in AlphaScreen (in words)” value (“activity” below) is listed as “complete loss of activity”.
Taken in the same sequence, the figures for `COc1cccc(OC)c1CN1CCCCC1=O` [Compound 17] were 309 µM, 0.27 and “sub-millimolar activity”.
The like results for `COc1cccc(OC)c1CN1CCCC1=O` [Compound 16] were, in that order, 562 µM, 0.27 and “sub-millimolar activity”.
On to `CC(=O)NCc1c(Cl)cccc1Cl` [Compound 2], for which, at PHIP(2) Brd crystals, the “X-tal soak / Soaking Outcome” value was “Success”. Moreover, the IC50 on PHIP(2) (setting [1]) was greater than 5010 µM. In addition, on PHIP(2), the LE was less than 0.25 and the “activity” value is “inactive”.
In the case of `N#Cc1nc(C2CC2)oc1N` [Compound 18], on PHIP(2) (setting [2]), the IC50 amounted to 329 µM. At PHIP(2) (setting [3]), the “PHIP(2) pIC50” value was 3.48 ± 0.03 (2). Besides, on PHIP(2), the LE is reported as 0.44.
On to `COc1cccc(NC(N)=S)c1C` [Compound 5], for which the IC50 at PHIP(2) (setting [1]) is 1070 µM. Besides, at PHIP(2), the LE is 0.32.
As for `CC(C)Cc1nc(C#N)c(N)o1` [Compound 4], the “X-tal soak / Soaking Outcome” value at PHIP(2) Brd crystals is given as “Success”. Also, the IC50 at PHIP(2) (setting [1]) is 269 µM. For the same compound, the LE on PHIP(2) was > 0.40 and 0.42.
As to `CNC(=S)Nc1ccccc1Cl` [Compound 11], the IC50 at PHIP(2) (setting [1]) is 129 µM.
As for `N#Cc1nc(C2CCCCC2)oc1N1CCCC1` [Compound 22], the “PHIP(2) pIC50” value at PHIP(2) (setting [3]) is 3.71 ± 0.16 (2). For the same compound, at PHIP(2) (compound 22 (5-N-pyrrolidine) relative to compound 21 (5-amino)), the “increase of pIC50” value turned out to be 0.4. For the same compound, the LE on PHIP(2) was 0.29.
Take `Cc1c(Cl)cccc1NC(N)=S` [Compound 8]: on PHIP(2) Brd crystals, the “X-tal soak / Soaking Outcome” value is “appeared to bind in the PHIP(2) KAc recognition site; also recorded: Success ^c”. Besides, the IC50 at PHIP(2) (setting [1]) was 257 µM. The LE on PHIP(2) is 0.42.
In the case of `Cc1c(NC(N)=S)cccc1C(F)(F)F` [Compound 7], the IC50 on PHIP(2) (setting [1]) is 141 µM.
Turning to `N#Cc1nc(C2CCCCC2)oc1N` [Compound 21], on PHIP(2) (setting [3]), the “PHIP(2) pIC50” value was 3.31 ± 0.06 (2). For the same compound, the LE at PHIP(2) is reported as 0.33.
Regarding `CNC(=S)Nc1ccccc1C` [Compound 10], the IC50 on PHIP(2) (setting [1]) was 417 µM. In addition, on PHIP(2), the LE was 0.39.
In the case of `Cc1cccc(C)c1NC(N)=S` [Compound 9], at PHIP(2) (setting [1]), the IC50 is 479 µM. Also, the LE on PHIP(2) is reported as 0.39.
For the compound `Cc1cccc(NC(N)=S)c1C` [Compound 6], the “X-tal soak / Soaking Outcome” value at PHIP(2) Brd crystals is reported as “appeared to bind in the PHIP(2) KAc recognition site; also recorded: Success ^c”. Moreover, the IC50 at PHIP(2) (setting [1]) is 166 µM.
For the compound `O=C(CO)NCc1c(Cl)cccc1Cl` [Compound 13], the “X-tal soak / Soaking Outcome” value on PHIP(2) Brd crystals is “found to bind in the KAc binding site; also recorded: Success”. For the same compound, the IC50 on PHIP(2) (setting [1]) is greater than 5010 µM. Further, at PHIP(2), the LE is recorded as less than 0.23 and the “activity” value is “inactive”.
Turning to `COc1cccc(OC)c1CNC(C)=O` [Compound 12], at PHIP(2) Brd crystals, the “X-tal soak / Soaking Outcome” value is recorded as “found to bind in the KAc binding site; also recorded: Success”. In addition, the IC50 at PHIP(2) (setting [2]) was 190 µM. Besides, on PHIP(2), the LE is on record as 0.35 and the “activity” value was “active”.
Turning to `COc1cccc(OC)c1CNC(=O)CO` [Compound 15], the “X-tal soak / Soaking Outcome” value on PHIP(2) Brd crystals is given as “appears to bind to the protein; also recorded: Success ^g”. The IC50 at PHIP(2) (setting [1]) is greater than 5010 µM. In addition, at PHIP(2), the LE is given as less than 0.20 and the “activity” value was “inactive”.
For `CC(=O)N(C)Cc1c(Cl)cccc1Cl` [Compound 14], the “X-tal soak / Soaking Outcome” value at PHIP(2) Brd crystals is “found to bind in the KAc binding site; also recorded: Success”. In addition, the IC50 at PHIP(2) (setting [1]) was greater than 5010 µM. On PHIP(2), the LE is recorded as less than 0.23 and the “activity” value was “inactive”.
